Reference: EP1358888A1, “The human peptide antibiotic LL-37/hCAP-18 is an inducer of angiogenesis” (priority 2002, dated 2003)
Entries after “also recorded” stand apart in the source; their conditions may differ. Where two headings read alike, the source gives them in different places.

Test system: HUVECs
Assay: Inhibition experiments: signalling inhibitors on LL-37/hCAP-18-induced endothelial proliferation
Format: cell-based, human
Procedure: Stimulation of angiogenesis by LL-37/hCAP-18 in vitro. a, In vitro proliferation assays. HUVECs were seeded on six well plastic dishes and cultivated in serum free medium. Different concentrations of LL-37/hCAP-18 and control peptides were added to the culture medium. Figures on the left hand side indicate the numbers of cells per µl of volume after 72 h. VEGF was used as positive control. […] A significance level of P < 0.05 is labeled with **.b. […] HUVECs were seeded on Matrigel support and cultivated in serum free medium in the absence (c) or presence (d) of 0.5 µg/ml LL-37/hCAP-18. After 18 h, the cultures were inspected for the formation of rings and cords. Representative figures are shown.
Endothelial cells from human umbilical veins (HUVEC) were isolated as described before ^8. 10^4 cells were seeded on six well plastic dishes in serum free medium. Different concentrations of LL-37 were added to the culture medium. VEGF (5 ng / ml, 165 amino acid variant, Sigma Chemicals, Munich, Germany) was used as positive control. After 72 h the cells were detached from the support and counted. Experiments were repeated ten times using synthetic LL-37/hCAP-18 (37 C-terminal amino acids) and the hexapeptide WKYMVm, wherein "m" denotes the D-form of the amino acid methionine, from two different sources (IPF Pharmaceuticals, Hannover, Germany and Institute for Biochemistry, Humboldt-University of Berlin, Germany). As control peptide we used the peptide L-14 […] to have any interactions with FPRL1 from the same source (Humboldt-University). Human serum (10 %, donor with ABO blood group O) was applied under the same conditions to analyze any impact on induction of proliferation by LL-37. For inhibition experiments we applied inhibitors of G-protein coupled receptors (pertussis toxin, 10 ng/ml), PI-3K (wortmannin), and PKC (GF 109203X). For Matrigel assays HUVECs were seeded on Matrigel support (Beckton Dickinson, Franklin Lakes, NJ) and cultivated in serum free medium in the absence or presence of 0.5 µg/ml LL-37. After 18 h, the cultures were inspected for the formation of rings and cords. Experiments were repeated three times. We measured the ability of LL-37/hCAP-18 to accelerate proliferation of HUVECs in a proliferation assay. […] WKYMVm is a specific agonist for FPRL1 ^10.
As a next step we analyzed which mechanisms might be involved in the angiogenic activity of LL-37/hCAP-18. We applied inhibitors of G-protein coupled receptors (pertussis toxin), PI-3K (wortmannin), and PKC (GF 109203X) and monitored cell proliferation as outcome parameter.

Row | Compound | effect of inhibitor on proliferative response induced by LL-37/hCAP-18 (preincubation of endothelial cells with inhibitor (pertussis toxin 10 ng/ml)) | effect of inhibitor on baseline cell proliferation (without LL-37/hCAP-18) | effect of inhibitor on baseline cell proliferation | effect of inhibitor on proliferative response induced by LL-37/hCAP-18
1 | CN(C)CCCn1cc(C2=C(c3c[nH]c4ccccc34)C(=O)NC2=O)c2ccccc21 [GF 109203X] | inhibition of the proliferative response; also recorded: inhibited activities of LL-37/hCAP-18 on endothelial proliferation | no effect on the baseline measurements |  | 
2 | COC[C@H]1OC(=O)c2coc3c2[C@@]1(C)C1=C(C3=O)[C@@H]2CCC(=O)[C@@]2(C)C[C@H]1OC(C)=O [wortmannin] |  |  | no effect on the baseline measurements | inhibition of the proliferative response; also recorded: inhibited activities of LL-37/hCAP-18 on endothelial proliferation
